Results: the NIST ThermoML archive (doi:10.1021/je060271a)

Details: 283.15 K, Liquid, Vibrating tube method

CCCCCC(=O)OCC(COC(=O)CCCCC)(COC(=O)CCCCC)COC(=O)CCCCC [pentaerythritol tetrahexanoate]
Details | mass density [kg/m3]
20425 kPa | 1015.6
20443 kPa | 1015.7
20458 kPa | 1015.7
20473 kPa | 1015.7
20491 kPa | 1015.7
20506 kPa | 1015.6
20522 kPa | 1015.6
20537 kPa | 1015.7
20555 kPa | 1015.7
20571 kPa | 1015.7
20586 kPa | 1015.8
20606 kPa | 1015.7
20621 kPa | 1015.7
20637 kPa | 1015.9
20652 kPa | 1015.7
20670 kPa | 1015.8
20686 kPa | 1015.8
20701 kPa | 1015.7
20719 kPa | 1015.8
20735 kPa | 1015.7
20750 kPa | 1015.8
20769 kPa | 1016
20785 kPa | 1015.8
20801 kPa | 1016
20817 kPa | 1015.9
20836 kPa | 1015.8
20851 kPa | 1015.8
20867 kPa | 1015.8
20886 kPa | 1015.9
20902 kPa | 1015.9
20918 kPa | 1015.9
20937 kPa | 1015.9
20953 kPa | 1015.9
20968 kPa | 1015.9
20988 kPa | 1015.9
21004 kPa | 1016
21021 kPa | 1016
21040 kPa | 1016
21057 kPa | 1016
21073 kPa | 1016
21092 kPa | 1016
21106 kPa | 1016
21122 kPa | 1016
21140 kPa | 1016.1
21155 kPa | 1016
21170 kPa | 1015.9
21185 kPa | 1016.1
21204 kPa | 1016.1
21219 kPa | 1016
21237 kPa | 1016
21252 kPa | 1016.1
21267 kPa | 1016.1
21282 kPa | 1016.1
21301 kPa | 1016.1
21316 kPa | 1016.1
21332 kPa | 1016.1
21350 kPa | 1016.1
21366 kPa | 1016.2
21384 kPa | 1016.2
21399 kPa | 1016.1
21415 kPa | 1016.1
21430 kPa | 1016.2
21449 kPa | 1016.3
21465 kPa | 1016.1
21480 kPa | 1016.2
21499 kPa | 1016.1
21514 kPa | 1016.3
21530 kPa | 1016.3
21546 kPa | 1016.3
21565 kPa | 1016.2
21581 kPa | 1016.1
21597 kPa | 1016.3
21616 kPa | 1016.3
21632 kPa | 1016.3
21648 kPa | 1016.3
21667 kPa | 1016.2
21684 kPa | 1016.3
21699 kPa | 1016.3
21715 kPa | 1016.3
21734 kPa | 1016.4
21766 kPa | 1016.3
21786 kPa | 1016.3
21802 kPa | 1016.5
21821 kPa | 1016.3
21837 kPa | 1016.4
21853 kPa | 1016.4
21870 kPa | 1016.3
21887 kPa | 1016.3
21904 kPa | 1016.4
21923 kPa | 1016.5
21940 kPa | 1016.5
21959 kPa | 1016.4
21976 kPa | 1016.5
21992 kPa | 1016.5
22008 kPa | 1016.5
22028 kPa | 1016.5
22044 kPa | 1016.5
22061 kPa | 1016.5
22081 kPa | 1016.5
22098 kPa | 1016.4
22117 kPa | 1016.6
22134 kPa | 1016.7
22150 kPa | 1016.5
22170 kPa | 1016.6
22187 kPa | 1016.6
22204 kPa | 1016.7
22224 kPa | 1016.5
22241 kPa | 1016.6
22261 kPa | 1016.5
22278 kPa | 1016.5
22295 kPa | 1016.5
22316 kPa | 1016.6
22333 kPa | 1016.6
22350 kPa | 1016.7
22367 kPa | 1016.7
22386 kPa | 1016.7
22402 kPa | 1016.7
22421 kPa | 1016.6
22436 kPa | 1016.7
22452 kPa | 1016.7
22468 kPa | 1016.6
22487 kPa | 1016.8
22503 kPa | 1016.7
22522 kPa | 1016.7
22538 kPa | 1016.8
22555 kPa | 1016.8
22574 kPa | 1016.7
22590 kPa | 1016.8
22607 kPa | 1016.7
22623 kPa | 1016.8
22643 kPa | 1016.7
22660 kPa | 1016.7
22676 kPa | 1016.8
22695 kPa | 1016.9
22710 kPa | 1016.9
22728 kPa | 1016.8
22744 kPa | 1016.8
22760 kPa | 1016.9
22779 kPa | 1016.9
22795 kPa | 1017
22810 kPa | 1016.8
22826 kPa | 1017
22845 kPa | 1017
22861 kPa | 1016.8
22880 kPa | 1017
